Reference: US20010036626A1, “Screening assay methods and systems using target pooling” (priority 2000, published 2001)

Legend:
[1] = tested on: CHO cell line expressing the M1 muscarinic receptor; test: Pooled two-target microfluidic screen: Fluo-4 green fluorescence response of CHO-M1 cells; assay type: cell-based; details: pooled with THP-1 cells, microfluidic channel, blue excitation light, FIG. 6
Description: (§1) A THP-1 cell line was labeled with Fura red. Both cell lines were pooled and introduced into microfluidic device having the channel structure illustrated in FIG. 5. The cells were flowed through the main channel of the device past a detector that excited the cells with blue excitation light. Green fluorescence was analyzed from the Fluo-4 labeled CHO cells to measure their response to the test compounds. The measurement of the different fluorescence was accomplished simultaneously through the use of appropriate beam splitters and filters in the optical train of the detector. Similarly, red fluorescence was measured from the Fura-red labeled THP-1 cells to measure their response. […] Similarly, different concentrations of UTP were also contacted with the cells flowing through the channel and the results for each system were plotted (FIG. 6C-D).

[2] = tested on: THP-1 cell line; test: Pooled two-target microfluidic screen: Fura red fluorescence response of THP-1 cells; assay type: cell-based; details: pooled with CHO-M1 cells, microfluidic channel, blue excitation light, FIG. 6C-6D
Description: as §1

O=c1ccn([C@@H]2O[C@H](COP(=O)(O)OP(=O)(O)OP(=O)(O)O)[C@@H](O)[C@H]2O)c(=O)[nH]1 [UTP]
green fluorescence response of Fluo-4 labeled CHO-M1 cells to different concentrations of test compound [1]: dose dependent response | red fluorescence response of Fura-red labeled THP-1 cells to different concentrations of test compound [2]: dose dependent response
